Measured values reported in article PMC5601486, “Identification of 4-phenylquinolin-2(1H)-one as a specific allosteric inhibitor of Akt” (Scientific Reports, 2017).

Columns and labels:
[1] = tested on: CDKL1; assay: KINOMEscan; details: 50000 nM
Description: KINOMEscan™ selectivity screen
(§1) Briefly, Kinase-tagged T7 phage strains were grown in parallel in an E. coli host derived from the BL21 strain. E. coli were grown to log-phase and infected with T7 phage from a frozen stock and incubated with shaking at 32°C until lysis (90-150 minutes). The kinases were produced in HEK-293 cells and subsequently tagged with DNA for qPCR detection. Streptavidin-coated magnetic beads were treated with biotinylated small molecule ligands to generate affinity resins for kinase
(§2) inhibitor or DMSO control was performed in polypropylene 384-well plates for 1 hr at room temperature. After wash with PBS buffer containing 0.05% Tween 20, the beads were incubated in elution buffer (PBS containing 0.05 % Tween 20 and 0.5 μM non-biotinylated affinity ligand) for 30 minutes at room temperature. The kinase concentration in the eluates was measured by qPCR.

[2] = tested on: NEK10; assay: KINOMEscan; details: 50000 nM
Description: KINOMEscan™ selectivity screen
(§3) The assay was perfor med at DiscoveRx Corporation according the methods published previously5. Briefly, Kinase-tagged T7 phage strains were grown in parallel in an E. coli host derived from the BL21 strain. E. coli were grown to log-phase and infected with T7 phage from a frozen stock and incubated with shaking at 32°C until lysis (90-150 minutes). The kinases were produced in HEK-293 cells and subsequently tagged with DNA for qPCR detection. Streptavidin-coated magnetic beads were treated with biotinylated small molecule ligands to generate affinity resins for kinase
as §2

[3] = tested on: TNNI3K; assay: KINOMEscan; details: 50000 nM
Description: KINOMEscan™ selectivity screen
as §3, §2

[4] = tested on: Neuro 2A cells; assay: MTS cell proliferation assay; type: cell-based, Mouse; details: 1 day
Description: Neuro 2A cells or NIH/3T3 cells (ATCC) were seeded at various confluency in a 96-well plate in 100 µL DMEM containing 5% FBS or 10% FBS with 1% penicillin streptomucin, respectively, at 37 °C in a 5% CO2 and 95% humidity incubator for 18 hr. To each well 1 µL inhibitor with various concentrations or DMSO was added. The final concentrations of the tested inhibitors were 0, 5, 10, 20, 40 and 80 µM for G7 and LY, and 0, 5, 10, 20, 40 and 80 nM for Torin1, based on their respective IC50 values (~µM for G7 and LY and ~ nM for Torin 1). After 24 hr, 20 µL of CellTiter 96® AQueous One Solution Reagent (Promega) were added. The plate was placed in the incubator for 2 h and absorbance at 490 nm was measured with a Synergy HT Microplate Reader (Bio-Tek).

[5] = tested on: STK36; assay: KINOMEscan; details: 50000 nM
Description: KINOMEscan™ selectivity screen
as §3, §2

[6] = tested on: BMPR1A; assay: KINOMEscan; details: 50000 nM
Description: KINOMEscan™ selectivity screen
as §3, §2

[7] = tested on: SRC; assay: KINOMEscan; details: 50000 nM
Description: KINOMEscan™ selectivity screen
as §3, §2

[8] = tested on: EGFR(L747-S752del, P753S); assay: KINOMEscan; details: 50000 nM
Description: as §1, §2

[9] = tested on: IKK-alpha; assay: KINOMEscan; details: 50000 nM
Description: KINOMEscan™ selectivity screen
as §3, §2

[10] = tested on: FYN; assay: KINOMEscan; details: 50000 nM
Description: KINOMEscan™ selectivity screen
as §3, §2

[11] = tested on: KIT; assay: KINOMEscan; details: 50000 nM
Description: KINOMEscan™ selectivity screen
as §1, §2

[12] = tested on: RPS6KA5(Kin.Dom.2-C-terminal); assay: KINOMEscan; details: 50000 nM
Description: KINOMEscan™ selectivity screen
Briefly, Kinase-tagged T7 phage strains were grown in parallel in an E. coli host derived from the BL21 strain. E. coli were grown to log-phase and infected with T7 phage from a frozen stock and incubated with shaking at 32°C until lysis (90-150 minutes). The kinases were produced in HEK-293 cells and subsequently tagged with DNA for qPCR detection.
After wash with PBS buffer containing 0.05% Tween 20, the beads were incubated in elution buffer (PBS containing 0.05 % Tween 20 and 0.5 μM non-biotinylated affinity ligand) for 30 minutes at room temperature. The kinase concentration in the eluates was measured by qPCR.

[13] = tested on: EGFR(G719C); assay: KINOMEscan; details: 50000 nM
Description: KINOMEscan™ selectivity screen
as §1, §2

[14] = tested on: PRKX; assay: KINOMEscan; details: 50000 nM
Description: KINOMEscan™ selectivity screen
as §3, §2

[15] = tested on: PIK3CA(E542K); assay: KINOMEscan; details: 50000 nM
Description: KINOMEscan™ selectivity screen
as §3, §2

[16] = tested on: TXK; assay: KINOMEscan; details: 50000 nM
Description: KINOMEscan™ selectivity screen
as §3, §2

[17] = tested on: Akt S473 phosphorylation; assay: Western blot analysis of S473 phosphorylation; type: cell-based; details: Mus musculus, N2a, 0.5 h; Neuro 2A cells, IGF stimulation 30 min; read-out: IC50 of IGF-induced S473 phosphorylation
Description: Neuro 2A cells were seeded in 12-well plates in DMEM containing 5% FBS for 24 hr.
After overnight serum starvation (in 0% FBS DMEM), cells were incubated for 30 min at 37 °C with G7 or LY294002 or Torin 1 (Sigma Aldrich) at various concentrations, or DMSO control. IGF-1 was added to each well at a final concentration of 100 ng/mL. After 30-min incubation cells were washed with cold PBS and lysed with 50 µL lysis buffer containing 1% Triton X-100 and protease/phosphatase inhibitors (Cell Signaling Technology) or RIPA buffer (Santa Cruz Biotech). Samples were electrophoresed in 4–12% Bis-Tris gels (Life Technologies) at 150 V using MOPS SDS running buffer. Proteins were transferred electrophoretically to a PVDF or nitrocellulose membrane. For detection of cleaved […]
caspase 3 a Trans-Blot Turbo Transfer System (Bio-Rad, 25 V for 25 min) with PVDF membrane were used. […]
anti- GAPDH (14C10) antibody (#2118) (all antibodies were from Cell Signaling Technology unless indicated, 1:1000 dilution was used) at 4°C overnight, washed three times with TBS-T, then incubated with peroxidase-conjugated secondary antibody (Sigma-Aldrich) for 1 hr at room temperature. […] Band intensity was quantitated using Kodak 1D imaging analysis software. […]

[18] = tested on: CASK; assay: KINOMEscan; details: 50000 nM
Description: KINOMEscan™ selectivity screen
as §1, §2

[19] = tested on: WNK2; assay: KINOMEscan; details: 50000 nM
Description: KINOMEscan™ selectivity screen
(§4) The assay was perfor med at DiscoveRx Corporation according the methods published previously5. […] The kinases were produced in HEK-293 cells and subsequently tagged with DNA for qPCR detection. Streptavidin-coated magnetic beads were treated with biotinylated small molecule ligands to generate affinity resins for kinase
as §2

[20] = tested on: SIK; assay: KINOMEscan; details: 50000 nM
Description: KINOMEscan™ selectivity screen
as §3, §2

[21] = tested on: EGFR; assay: KINOMEscan; details: 50000 nM
Description: KINOMEscan™ selectivity screen
as §3, §2

[22] = tested on: FLT3(ITD); assay: KINOMEscan; details: 50000 nM
Description: KINOMEscan™ selectivity screen
as §4, §2

[23] = tested on: DYRK1B; assay: KINOMEscan; details: 50000 nM
Description: KINOMEscan™ selectivity screen
as §4, §2

[24] = tested on: PCTK1; assay: KINOMEscan; details: 50000 nM
Description: KINOMEscan™ selectivity screen
as §1, §2

[25] = tested on: PCTK2; assay: KINOMEscan; details: 50000 nM
Description: KINOMEscan™ selectivity screen
as §3, §2

[26] = tested on: KIT(L576P); assay: KINOMEscan; details: 50000 nM
Description: KINOMEscan™ selectivity screen
as §1, §2

[27] = tested on: RET; assay: KINOMEscan; details: 50000 nM
Description: KINOMEscan™ selectivity screen
as §3, §2

[28] = tested on: MKK7; assay: KINOMEscan; details: 50000 nM
Description: KINOMEscan™ selectivity screen
as §3, §2

[29] = tested on: MERTK; assay: KINOMEscan; details: 50000 nM
Description: KINOMEscan™ selectivity screen
as §3, §2

[30] = tested on: FES; assay: KINOMEscan; details: 50000 nM
Description: KINOMEscan™ selectivity screen
as §1, §2

[31] = tested on: MAK; assay: KINOMEscan; details: 50000 nM
Description: KINOMEscan™ selectivity screen
as §3, §2

**Q.** How did the “Percent Control” value [1] turn out when `Oc1cc(-c2ccccc2)c2ccccc2n1` [G7, 4-phenylquinolin-2(1H)-one] was run?
**A.** The value was 100%.

**Q.** What about the “Percent Control” value [2] of the same compound?
**A.** Its value is 66%.

**Q.** What about the “Percent Control” value [3] of the same compound?
**A.** Its value is 95%.

**Q.** What about the “proliferation of Neuro 2A cells” value [4] of the same compound?
**A.** The value was “inhibited the proliferation”.

**Q.** What about the “Percent Control” value [5] of the same compound?
**A.** The value was 95%.

**Q.** What about the “Percent Control” value [6] of the same compound?
**A.** Its value is 100%.

**Q.** And the “Percent Control” value [7]?
**A.** The value was 65%.

**Q.** What about the “Percent Control” value [8] of the same compound?
**A.** Its value is 84%.

**Q.** What about the “Percent Control” value [9] of the same compound?
**A.** The value was 92%.

**Q.** What about the “Percent Control” value [10] of the same compound?
**A.** Its value is 89%.

**Q.** What about the “Percent Control” value [11] of the same compound?
**A.** The value was 26%.

**Q.** And the “Percent Control” value [12]?
**A.** Its value is 93%.

**Q.** And the “Percent Control” value [13]?
**A.** Its value is 79%.

**Q.** And the “Percent Control” value [14]?
**A.** Its value is 76%.

**Q.** What about the “Percent Control” value [15] of the same compound?
**A.** The value was 82%.

**Q.** What about the “Percent Control” value [16] of the same compound?
**A.** Its value is 93%.

**Q.** And the IC50 [17]?
**A.** Its IC50 is 18 µM.

**Q.** And the “Percent Control” value [18]?
**A.** Its value is 89%.

**Q.** And the “Percent Control” value [19]?
**A.** Its value is 84%.

**Q.** And the “Percent Control” value [20]?
**A.** Its value is 65%.

**Q.** And the “Percent Control” value [21]?
**A.** Its value is 89%.

**Q.** And the “Percent Control” value [22]?
**A.** The value was 52%.

**Q.** What about the “Percent Control” value [23] of the same compound?
**A.** Its value is 76%.

**Q.** And the “Percent Control” value [24]?
**A.** Its value is 91%.

**Q.** And the “Percent Control” value [25]?
**A.** The value was 99%.

**Q.** What about the “Percent Control” value [26] of the same compound?
**A.** Its value is 22%.

**Q.** And the “Percent Control” value [27]?
**A.** Its value is 51%.

**Q.** And the “Percent Control” value [28]?
**A.** Its value is 100%.

**Q.** And the “Percent Control” value [29]?
**A.** The value was 42%.

**Q.** And the “Percent Control” value [30]?
**A.** The value was 92%.

**Q.** What about the “Percent Control” value [31] of the same compound?
**A.** Its value is 77%.
